In patent US11596639B2, “Substituted indole Mcl-1 inhibitors” (Vanderbilt University, priority 2016, dated 2023):

What was measured:
Mcl-1 = Mcl-1 (Homo sapiens (Human), UniProt Q07820); test: Fluorescence polarization anisotropy (FPA) competition assay, FITC-Bak or FITC-Bim BH3 peptide; type: binding; conditions: read-out: Ki for Inhibition of Mcl-1 by FPA assay
[1] = test system: H929 human cancer cell lines; test: Cellular viability / proliferation (Cell TiterGlo, 72 h); type: cell-based; conditions: Homo sapiens, NCI-H929, 72 h, read-out: GI50 on cellular proliferation of H929 human cancer cell lines, H929 cells, 72 h, Cell TiterGlo, 10% FBS
Procedure: Cellular Viability of Human Tumor Cell Lines
To evaluate compound effect on cellular proliferation, cells were plated at 1,000 cells/well in 96-well tissue culture plates in a total volume of 90 μL medium supplemented with 10% FBS (Sigma, Saint Louis, Mo.). 24 hours later, 10 μL of compound (in a 2-fold serial dilution) is added to the cells for a top concentration of 50 μM and a final DMSO concentration <1%. After 72 hours, 50 μL of Cell TiterGlo (Promega, Madison, Wis., USA) reagent is added to each well and plates are incubated at room temperature, in the dark, for 30 minutes. Luminescence is measured on a BioTek Cytation 3. Luminescence values are imported into a template in XLFit (Guildford, Surrey, UK) that uses a four-parameter fit to generate an IC50 value for each compound dilution series on the plate.

Sequence of Mcl-1 (Q07820 172-327): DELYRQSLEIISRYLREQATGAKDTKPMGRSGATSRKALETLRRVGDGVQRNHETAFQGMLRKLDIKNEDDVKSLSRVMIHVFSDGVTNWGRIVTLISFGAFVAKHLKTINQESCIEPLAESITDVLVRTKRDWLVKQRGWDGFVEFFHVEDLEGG

| GI50 [1] | SMILES | Ki (Mcl-1) |
| --- | --- | --- |
| – | Cc1cc(OCCCc2c3n(c4c(-c5c(C)nn(C)c5C)c(Cl)ccc24)[C@H](C)CN(c2cn(C)c4ccc(-c5nnc(C6CCCCC6)o5)cc24)C3=O)cc(C)c1Cl [Example 413, (R)-7-Chloro-10-(3-(4-chloro-3,5-dimethylphenoxy)propyl)-2-(5-(5-cyclohexyl-1,3,4-oxadiazol-2-yl)-1-methyl-1H-indol-3-yl)-4-methyl-6-(1,3,5-trimethyl-1H-pyrazol-4-yl)-3,4-dihydropyrazino[1,2-a]indol-1(2H)-one] | 0.0035 µM |
| – | Cc1cc(OCCCc2c(C(=O)N3CCN(c4cccc(C(=O)O)c4)CC3)n(Cc3cccnc3)c3c(-c4c(C)nn(C)c4C)c(Cl)ccc23)cc(C)c1Cl [Example 735, 3-(4-(6-chloro-3-(3-(4-chloro-3,5-dimethylphenoxy)propyl)-1-(pyridin-3-ylmethyl)-7-(1,3,5-trimethyl-1H-pyrazol-4-yl)-1H-indole-2-carbonyl)piperazin-1-yl)benzoic acid] | 0.052 µM |
| – | Cc1cc(OCCCc2c(C(=O)N3CCC(C(=O)O)C3)[nH]c3c(-c4c(C)ncnc4C)c(Cl)ccc23)cc(C)c1Cl (stereo not drawn) [Example 745, 1-[6-Chloro-3-[3-(4-chloro-3,5-dimethyl-phenoxy)propyl]-7-(4,6-dimethylpyrimidin-5-yl)-1H-indole-2-carbonyl]pyrrolidine-3-carboxylic acid] | 0.044 µM |
| – | Cc1cc(OCCCc2c3n(c4c(-c5c(C)nn(CC(=O)O)c5C)c(Cl)ccc24)CCCN(c2ccccc2)C3=O)cc(C)c1Cl [Example 136, 2-(4-(8-Chloro-11-(3-(4-chloro-3,5-dimethylphenoxy)propyl)-1-oxo-2-phenyl-2,3,4,5-tetrahydro-1H-[1,4]diazepino[1,2-a]indol-7-yl)-3,5-dimethyl-1H-pyrazol-1-yl)acetic acid] | < 0.001 µM |
| – | Cc1cc(OCCCc2c3n(c4c(-c5c(C)nn(C)c5C)c(Cl)ccc24)[C@H](C)CN(c2nc4cc(C(=O)O)ccn4n2)C3=O)cc(C)c1Cl [Example 135, (R)-2-(7-chloro-10-(3-(4-chloro-3,5-dimethylphenoxy)propyl)-4-methyl-1-oxo-6-(1,3,5-trimethyl-1H-pyrazol-4-yl)-3,4-dihydropyrazino[1,2-a]indol-2(1H)-yl)-[1,2,4]triazolo[1,5-a]pyridine-7-carboxylic acid] | < 0.001 µM |
| – | COC(=O)c1ccc2c(c1)c(N1C[C@@H](C)n3c(c(CCCOc4cc(C)c(Cl)c(C)c4)c4ccc(Cl)c(-c5c(C)nn(C)c5C)c43)C1=O)cn2COCC[Si](C)(C)C [Example 243, Methyl (R)-3-(7-chloro-10-(3-(4-chloro-3,5-dimethylphenoxy)propyl)-4-methyl-1-oxo-6-(1,3,5-trimethyl-1H-pyrazol-4-yl)-3,4-dihydropyrazino[1,2-a]indol-2(1H)-yl)-1-((2-(trimethylsilyl)ethoxy)methyl)-1H-indole-5-carboxylate] | 0.045 µM |
| – | Cc1cc(OCCCc2c3n(c4c(-c5c(C)nn(C)c5C)c(Cl)ccc24)[C@H](C)CN(c2ccc4c(C(=O)O)nn(C)c4c2)C3=O)cc(C)c1Cl [Example 121, (R)-6-(7-Chloro-10-(3-(4-chloro-3,5-dimethylphenoxy)propyl)-4-methyl-1-oxo-6-(1,3,5-trimethyl-1H-pyrazol-4-yl)-3,4-dihydropyrazino[1,2-a]indol-2(1H)-yl)-1-methyl-1H-indazole-3-carboxylic acid] | 0.0019 µM |
| – | Cc1cc(OCCCc2c3n(c4c(-c5c(C)nn(C)c5C)c(Cl)ccc24)CCCN(c2cc4c(c(C(=O)O)c2)OCCO4)C3=O)cc(C)c1Cl [Example 25, 7-(8-Chloro-11-(3-(4-chloro-3,5-dimethylphenoxy)propyl)-1-oxo-7-(1,3,5-trimethyl-1H-pyrazol-4-yl)-4,5-dihydro-1H-[1,4]diazepino[1,2-a]indol-2(3H)-yl)-2,3-dihydrobenzo[b][1,4]dioxine-5-carboxylic acid] | 0.0011 µM |
| – | Cc1cc(CCCCc2c(C(=O)N3CCN(c4cncc(C(=O)O)c4)CC3)[nH]c3c(-c4c(C)nn(C)c4C)c(Cl)ccc23)cc(C)c1Cl [Example 740, 5-(4-(6-Chloro-3-(4-(4-chloro-3,5-dimethylphenyl)butyl)-7-(1,3,5-trimethyl-1H-pyrazol-4-yl)-1H-indole-2-carbonyl)piperazin-1-yl)nicotinic acid] | 0.085 µM |
| – | Cc1cc(OCCCc2c3n(c4c(-c5c(C)nn(C)c5C)c(Cl)ccc24)CCCN(Cc2cc(C(=O)O)cc(N4CCN(C(=O)c5ccco5)CC4)n2)C3=O)cc(C)c1Cl [Example 9, 2-((8-Chloro-11-(3-(4-chloro-3,5-dimethylphenoxy)propyl)-1-oxo-7-(1,3,5-trimethyl-1H-pyrazol-4-yl)-4,5-dihydro-1H-[1,4]diazepino[1,2-a]indol-2(3H)-yl)methyl)-6-(4-(furan-2-carbonyl)piperazin-1-yl)isonicotinic acid] | 0.02 µM |
| 3.4 µM | Cc1cc(OCCCc2c3n(c4c(-c5c(C)nn(C)c5C)c(Cl)ccc24)[C@@H](C)CN(c2cn(C)c4ccc(C(=O)O)cc24)C3=O)cc(C)c1Cl [Example 212, (S)-3-(7-chloro-10-(3-(4-chloro-3,5-dimethylphenoxy)propyl)-4-methyl-1-oxo-6-(1,3,5-trimethyl-1H-pyrazol-4-yl)-3,4-dihydropyrazino[1,2-a]indol-2(1H)-yl)-1-methyl-1H-indole-5-carboxylic acid] | – |
| 0.25 µM | Cc1cc(OCCCc2c3n(c4c(-c5c(C)nn(C)c5C)c(Cl)ccc24)CCCN(c2cn(C)c4ccc(C(=O)O)cc24)C3=O)cc(C)c1Cl [Example 80, 3-(8-Chloro-11-(3-(4-chloro-3,5-dimethylphenoxy)propyl)-1-oxo-7-(1,3,5-trimethyl-1H-pyrazol-4-yl)-4,5-dihydro-1H-[1,4]diazepino[1,2-a]indol-2(3H)-yl)-1-methyl-1H-indole-5-carboxylic acid] | – |
| 2.9 µM | Cc1cc(OCCCc2c3n(c4c(-c5c(C)nn(C)c5C)c(Cl)ccc24)CCCN(c2cc(C(=O)O)c4ccn(C)c4c2)C3=O)cc(C)c1Cl (single isomer, unassigned) [Example 431, 6-(8-Chloro-11-(3-(4-chloro-3,5-dimethylphenoxy)propyl)-1-oxo-7-(1,3,5-trimethyl-1H-pyrazol-4-yl)-4,5-dihydro-1H-[1,4]diazepino[1,2-a]indol-2(3H)-yl)-1-methyl-1H-indole-4-carboxylic acid] | – |

| SMILES | GI50 [1] | Ki (Mcl-1) |
| --- | --- | --- |
| Cc1cc(OCCCc2c3n(c4c(-c5c(C)n[nH]c5C)c(Cl)ccc24)[C@H](C)CN(c2cccc4c(C(=O)O)cn(C)c24)C3=O)cc(C)c1Cl [Example 108, (R)-7-(7-chloro-10-(3-(4-chloro-3,5-dimethylphenoxy)propyl)-6-(3,5-dimethyl-1H-pyrazol-4-yl)-4-methyl-1-oxo-3,4-dihydropyrazino[1,2-a]indol-2(1H)-yl)-1-methyl-1H-indole-3-carboxylic acid] | 0.88 µM | – |
| Cc1cc(N2C[C@@H](C)n3c(c(CCCOc4cc(C)c(Cl)c(C)c4)c4ccc(Cl)c(-c5c(C)nn(C)c5C)c43)C2=O)c2c(c1)cc(C(=O)O)n2CCN1CCOCC1 [Example 597, (R)-7-(7-chloro-10-(3-(4-chloro-3,5-dimethylphenoxy)propyl)-4-methyl-1-oxo-6-(1,3,5-trimethyl-1H-pyrazol-4-yl)-3,4-dihydropyrazino[1,2-a]indol-2(1H)-yl)-5-methyl-1-(2-morpholinoethyl)-1H-indole-2-carboxylic acid] | 0.69 µM | – |
